Legend:
[1] = Preemergence herbicidal activity (% control) against monocot weeds; assay type: in vivo; conditions: pre-emergence, 336 h, average, read-out: Herbicidal activity (% control), preemergence, monocots; for activity at 4483.4 g/ha: 4 lb./A.
Source text: (§1) barnyardgrass (Echinochloa crusgalli) crabgrass (Digitaria spp.) nutsedge (Cyperus esculentus)
(§2) At 2 and 4 pounds per acre:
(§3) **Bermudagrass (Cynodon dactylon)
(§4) *downy brome (Bromus tectorum) foxtail (Setaria faberii)
(§5) Johnsongrass (Sorghum halepense) […]
(§6) quackgrass (Agropyron repens)
(§7) *ryegrass (Lolium perenne)
(§8) *wild oats (Avena factua)
(§9) *yellow millet (Panicum miliaceum)
(§10) The following test procedure is employed.

[2] = Postemergence herbicidal activity (% control) against monocot weeds; assay type: in vivo; conditions: post-emergence, 336 h, average, read-out: Herbicidal activity (% control), postemergence, monocots; for activity at 4483.4 g/ha: 4 lb./A.
Source text: as §1, §2, §3, §4, §5, §6, §7, §8, §9, §10

snapbeans = assay: Crop tolerance (selective herbicidal activity), snapbeans; assay type: in vivo; conditions: preemergence applications
Description: as §10
(§11) Following the general test procedure of Example 37, diphenyl ethers are evaluated for significant tolerance (as shown by 50% or less kill of the test crop at levels of application which give more than 50% kill of many or all of the weeds of Example 73) towards some or all of the following common agronomic crops (not all compounds tested against all crops): alfalfa, snapbeans, corn, cotton, cucumbers, peanuts, rape, rice, safflower, soybeans, tomatoes, and wheat.

corn = assay: Crop tolerance (selective herbicidal activity), corn; assay type: in vivo
cotton = assay: Crop tolerance (selective herbicidal activity), cotton; assay type: in vivo
Description: as §10, §11

peanuts = assay: Crop tolerance (selective herbicidal activity), peanuts; assay type: in vivo
rice = assay: Crop tolerance (selective herbicidal activity), rice; assay type: in vivo
soybeans = assay: Crop tolerance (selective herbicidal activity), soybeans; assay type: in vivo
wheat = assay: Crop tolerance (selective herbicidal activity), wheat; assay type: in vivo
[3] = Preemergence herbicidal activity (% control) against dicot weeds; conditions: pre-emergence, 336 h; for activity at 4483.4 g/ha: read-out: Herbicidal activity (% control), preemergence, dicots, 4 lb./A., average, about two weeks after application
[4] = Postemergence herbicidal activity (% control) against dicot weeds; conditions: post-emergence, 336 h; for activity at 4483.4 g/ha: read-out: Herbicidal activity (% control), postemergence, dicots, 4 lb./A., average, about two weeks after application
safflower = assay: Crop tolerance (selective herbicidal activity), safflower; assay type: in vivo; conditions: preemergence applications
Description: as §10, §11

[5] = about two weeks after application
[6] = 10 lb./A., about two weeks after application
[7] = postemergence or layby applications

## CC(C)Oc1cc(Oc2ccc(C(F)(F)F)cc2Cl)ccc1[N+](=O)[O-] [Example 4]
[1]; [5]
  activity at 4483.4 g/ha: 98%
[2]; [5]
  activity at 4483.4 g/ha: 80%
snapbeans
  Tolerance to snapbeans: Tolerance (significant tolerance (as shown by 50% or less kill of the test crop at levels of application which give more than 50% kill of many or all of the weeds of Example 73))
corn; postemergence applications
  Tolerance to corn: Tolerance (significant tolerance (as shown by 50% or less kill of the test crop at levels of application which give more than 50% kill of many or all of the weeds of Example 73))
corn; preemergence applications
  Tolerance to corn: Tolerance (significant tolerance (as shown by 50% or less kill of the test crop at levels of application which give more than 50% kill of many or all of the weeds of Example 73))
cotton; preemergence applications
  Tolerance to cotton: Tolerance (significant tolerance (as shown by 50% or less kill of the test crop at levels of application which give more than 50% kill of many or all of the weeds of Example 73))
peanuts; postemergence applications
  Tolerance to peanuts: Tolerance (significant tolerance (as shown by 50% or less kill of the test crop at levels of application which give more than 50% kill of many or all of the weeds of Example 73))
rice; preemergence applications
  Tolerance to rice: Tolerance (significant tolerance (as shown by 50% or less kill of the test crop at levels of application which give more than 50% kill of many or all of the weeds of Example 73))
soybeans; preemergence applications
  Tolerance to soybeans: Tolerance (significant tolerance (as shown by 50% or less kill of the test crop at levels of application which give more than 50% kill of many or all of the weeds of Example 73))
wheat; postemergence applications
  Tolerance to wheat: Tolerance (significant tolerance (as shown by 50% or less kill of the test crop at levels of application which give more than 50% kill of many or all of the weeds of Example 73))
wheat; preemergence applications
  Tolerance to wheat: Tolerance (significant tolerance (as shown by 50% or less kill of the test crop at levels of application which give more than 50% kill of many or all of the weeds of Example 73))
[3]
  activity at 4483.4 g/ha: 100%
[4]
  activity at 4483.4 g/ha: 100%

## CCOc1cc(Oc2ccc(C(F)(F)F)cc2Cl)ccc1[N+](=O)[O-] [Example 3, 2-Chloro-α,α,α-trifluoro-p-tolyl-3-ethoxy-4-nitrophenyl ether]
[1]; 1/4 lb./A.
  pest or weed control at 280.212 g/ha: 84%
[1]; [5]
  activity at 4483.4 g/ha: 89%
[1]; [6]
  activity at 11208.5 g/ha: 99%
[2]; 1/2 lb./A. (footnote +)
  pest or weed control at 560.425 g/ha: 96%
[2]; [5]
  activity at 4483.4 g/ha: 99%
[2]; [6]
  activity at 11208.5 g/ha: 100%
cotton; [7]
  Tolerance to cotton: Tolerance (significant tolerance (as shown by 50% or less kill of the test crop at levels of application which give more than 50% kill of many or all of the weeds of Example 73))
cotton; preemergence applications
  Tolerance to cotton: Tolerance (significant tolerance (as shown by 50% or less kill of the test crop at levels of application which give more than 50% kill of many or all of the weeds of Example 73))
peanuts; preemergence applications
  Tolerance to peanuts: Tolerance (significant tolerance (as shown by 50% or less kill of the test crop at levels of application which give more than 50% kill of many or all of the weeds of Example 73))
rice; postemergence applications or applications on transplanted rice
  Tolerance to rice: Tolerance (significant tolerance (as shown by 50% or less kill of the test crop at levels of application which give more than 50% kill of many or all of the weeds of Example 73))
safflower
  Tolerance to safflower: Tolerance (significant tolerance (as shown by 50% or less kill of the test crop at levels of application which give more than 50% kill of many or all of the weeds of Example 73))
soybeans; [7]
  Tolerance to soybeans: Tolerance (significant tolerance (as shown by 50% or less kill of the test crop at levels of application which give more than 50% kill of many or all of the weeds of Example 73))
soybeans; preemergence applications
  Tolerance to soybeans: Tolerance (significant tolerance (as shown by 50% or less kill of the test crop at levels of application which give more than 50% kill of many or all of the weeds of Example 73))
[3]; read-out: Herbicidal activity (% control), preemergence, dicots
  pest or weed control at 280.212 g/ha: 66%
[3]
  activity at 4483.4 g/ha: 99%
[3]; read-out: Herbicidal activity (% control), preemergence, dicots, 10 lb./A., average, about two weeks after application
  activity at 11208.5 g/ha: 100%
[4]; read-out: Herbicidal activity (% control), postemergence, dicots
  pest or weed control at 560.425 g/ha: 97%
[4]
  activity at 4483.4 g/ha: 100%
[4]; read-out: Herbicidal activity (% control), postemergence, dicots, 10 lb./A., average, about two weeks after application
  activity at 11208.5 g/ha: 100%
